{
  "source": "patent US20240360146A1",
  "about": "“BRUTON'S TYROSINE KINASE AND MUTANT DEGRADER, COMPOSITION AND APPLICATION THEREOF” (HANGZHOU HEALZEN THERAPEUTICS CO., LTD., priority 2021, published 2024)",
  "molecular_target": "T1, BTK (Homo sapiens, UniProt Q06187)",
  "T1 construct": "endogenous in cells; host or cells: Mino cells",
  "T1 sequence (Q06187 whole entry)": "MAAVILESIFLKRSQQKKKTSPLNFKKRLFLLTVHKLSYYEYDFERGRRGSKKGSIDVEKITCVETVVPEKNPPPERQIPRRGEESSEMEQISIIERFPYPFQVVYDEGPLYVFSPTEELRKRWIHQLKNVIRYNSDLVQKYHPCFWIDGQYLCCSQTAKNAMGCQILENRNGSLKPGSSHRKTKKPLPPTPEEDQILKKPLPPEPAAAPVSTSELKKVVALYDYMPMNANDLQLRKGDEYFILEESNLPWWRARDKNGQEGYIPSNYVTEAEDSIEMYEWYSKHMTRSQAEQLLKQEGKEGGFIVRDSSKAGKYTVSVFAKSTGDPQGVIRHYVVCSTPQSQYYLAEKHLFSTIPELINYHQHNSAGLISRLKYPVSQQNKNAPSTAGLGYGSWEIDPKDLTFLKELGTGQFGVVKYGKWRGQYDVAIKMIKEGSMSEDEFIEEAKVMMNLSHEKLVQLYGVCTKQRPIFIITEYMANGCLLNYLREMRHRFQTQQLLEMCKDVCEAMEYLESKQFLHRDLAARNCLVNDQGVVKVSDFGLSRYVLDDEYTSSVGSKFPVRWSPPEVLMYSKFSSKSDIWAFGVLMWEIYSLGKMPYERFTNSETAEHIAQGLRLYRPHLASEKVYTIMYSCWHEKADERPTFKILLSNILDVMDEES",
  "experiment": "BTK degradation activity test in Mino cells",
  "assay_type": "cell-based",
  "conditions": "16 h incubation, Western blot or Elisa",
  "method": "Mino cell line cells were seeded at 500,000 to 1,000,000 cells/well in a 6-well plate. The compounds were diluted to different concentrations and added to the plate, and after 16 h of incubation, cells were harvested. After lysing the cells, the total protein concentration in each well was determined using the BCA method. The amount of BTK was determined using Western blot or Elisa method. The amount of undegraded BTK protein at each drug concentration was compared with the amount of BTK protein in the blank control group to calculate the degradation rate. The degradation curve was drawn based on the degradation rate at each concentration, and the half degradation concentration (DC50) was calculated by fitting.",
  "data": [
    {"smiles": "CC1(c2ccc(Nc3nc(N4CCCC(N5CCN(C6CCCC6)C5=O)C4)cnc3C(N)=O)cc2)CCN(C2CN(c3ccc4c(c3)C(=O)N(C3CCC(=O)NC3=O)C4=O)C2)CC1", "note": "(centres unmarked) [Compound 001, 5-(3-(3-cyclopentyl-2-oxoimidazolin-1-yl)piperidin-1-yl)-3-((4-(1-(1-(2-(2,6-dioxopiperidin-3-yl)-1,3-dioxoisoindol-5-yl)azetidin-3-yl)-4-methylpiperidin-4-yl)phenyl)amino)pyrazin-2-carboxamide]", "values": [
      {"measurement": "DC50", "value": "< 1", "unit": "nM"}
    ]},
    {"smiles": "CC1(c2ccc(Nc3nc(N4CCCC(N5CCN(C6COC6)C5=O)C4)cnc3C(N)=O)cc2)CCN(C2CN(c3ccc4c(c3)C(=O)N(C3CCC(=O)NC3=O)C4=O)C2)CC1", "note": "(centres unmarked) [Compound 002, 3-((4-(1-(1-(2-(2,6-dioxopiperidin-3-yl)-1,3-dioxoisoindol-5-yl)azetidine-3-yl)-4-methylpiperidin-4-yl)phenyl)amino)-5-(3-(3-(oxetan-3-yl)-2-oxoimidazolin-1-yl)piperidin-1-yl)pyrazin-2-carboxamide]", "values": [
      {"measurement": "DC50", "value": "< 1", "unit": "nM"}
    ]},
    {"smiles": "CC1(c2ccc(Nc3nc(N4CCCC(N5CCN(C6CCCCC6)C5=O)C4)cnc3C(N)=O)cc2)CCN(C2CN(c3ccc4c(c3)C(=O)N(C3CCC(=O)NC3=O)C4=O)C2)CC1", "note": "(centres unmarked) [Compound 003, 5-(3-(3-cyclohexyl-2-oxoimidazolin-1-yl)piperidin-1-yl)-3-((4-(1-(1-(2-(2,6-dioxopiperidin-3-yl)-1,3-dioxoisoindol-5-yl)azetidin-3-yl)-4-methylpiperidin-4-yl)phenyl)amino)pyrazin-2-carboxamide]", "values": [
      {"measurement": "DC50", "value": "< 1", "unit": "nM"}
    ]},
    {"smiles": "CC1(c2ccc(Nc3nc(N4CCCC(N5CCN(C6CCOCC6)C5=O)C4)cnc3C(N)=O)cc2)CCN(C2CN(c3ccc4c(c3)C(=O)N(C3CCC(=O)NC3=O)C4=O)C2)CC1", "note": "(centres unmarked) [Compound 004, 3-((4-(1-(1-(2-(2,6-dioxopiperidin-3-yl)-1,3-dioxoisoindol-5-yl)azetidine-3-yl)-4-methylpiperidin-4-yl)phenyl)amino)-5-(3-(2-oxo-3-(tetrahydro-2H-pyran-4-yl)imidazolin-1-yl)piperidin-1-yl)pyrazin-2-carboxamide]", "values": [
      {"measurement": "DC50", "value": "< 1", "unit": "nM"}
    ]},
    {"smiles": "CC1(c2ccc(Nc3nc(N4CCCC(N5CC6CCCN6C5=O)C4)cnc3C(N)=O)cc2)CCN(C2CN(c3ccc4c(c3)C(=O)N(C3CCC(=O)NC3=O)C4=O)C2)CC1", "note": "(centres unmarked) [Compound 005, 3-((4-(1-(1-(2-(2,6-dioxopiperidin-3-yl)-1,3-dioxoisoindol-5-yl)azetidin-3-yl)-4-methylpiperidin-4-yl)phenyl)amino)-5-(3-(3-oxotetrahydro-1H-pyrrolo[1,2-c]imidazo 1-2(3H)-yl)piperidin-1-yl)pyrazin-2-carboxamide]", "values": [
      {"measurement": "DC50", "value": "< 1", "unit": "nM"}
    ]},
    {"smiles": "CC1(c2ccc(Nc3nc(N4CCCC(N5CC6CCCCN6C5=O)C4)cnc3C(N)=O)cc2)CCN(C2CN(c3ccc4c(c3)C(=O)N(C3CCC(=O)NC3=O)C4=O)C2)CC1", "note": "(centres unmarked) [Compound 006, 3-((4-(1-(1-(2-(2,6-dioxopiperidin-3-yl)-1,3-dioxoisoindol-5-yl)azetidin-3-yl)-4-methylpiperidin-4-yl)phenyl)amino)-5-(3-(3-oxohexahydroimidazo[1,5-a]pyridin-2(3H)-yl)piperidin-1-yl)pyrazin-2-carboxamide]", "values": [
      {"measurement": "DC50", "value": "< 1", "unit": "nM"}
    ]},
    {"smiles": "CCc1nc(C(N)=O)c(Nc2ccc(C3(C)CCN(C4CN(c5ccc6c(c5)C(=O)N(C5CCC(=O)NC5=O)C6=O)C4)CC3)cc2)nc1N1CCCC(N2CCN(C)C2=O)C1", "note": "(centres unmarked) [Compound 007]", "values": [
      {"measurement": "DC50", "value": "< 1", "unit": "nM"}
    ]},
    {"smiles": "CN1C(=O)N(C2CCCN(c3cnc(C(N)=O)c(Nc4ccc(C5(C)CCN(C6CN(c7ccc8c(c7)C(=O)N(C7CCC(=O)NC7=O)C8=O)C6)CC5)cc4)n3)C2)C2CCCC21", "note": "(centres unmarked) [Compound 008, 3-((4-(1-(1-(2-(2,6-dioxopiperidin-3-yl)-1,3-dioxoisoindol-5-yl)azetidin-3-yl)-4-methylpiperidin-4-yl)phenyl)amino)-5-(3-(3-methyl-2-oxohexahydrocyclopenta[d]imidazol-1(2H)-yl)piperidin-1-yl)pyrazin-2-carboxamide]", "values": [
      {"measurement": "DC50", "value": "< 1", "unit": "nM"}
    ]},
    {"smiles": "CN1C(=O)N(C2CCCN(c3cnc(C(N)=O)c(Nc4ccc(C5(C)CCN(C6CN(c7ccc8c(c7)C(=O)N(C7CCC(=O)NC7=O)C8=O)C6)CC5)cc4)n3)C2)C2CCCCC21", "note": "(centres unmarked) [Compound 009, 3-((4-(1-(1-(2-(2,6-dioxopiperidin-3-yl)-1,3-dioxoisoindol-5-yl)azetidin-3-yl)-4-methylpiperidin-4-yl)phenyl)amino)-5-(3-(3-methyl-2-oxooctahydro-1H-benzo[d]imidazol-1-yl)piperidin-1-yl)pyrazin-2-carboxamide]", "values": [
      {"measurement": "DC50", "value": "< 1", "unit": "nM"}
    ]},
    {"smiles": "CN1C(=O)N(C2CCCN(c3cnc(C(N)=O)c(Nc4ccc(C5(C)CCN(C6CN(c7ccc8c(c7)C(=O)N(C7CCC(=O)NC7=O)C8=O)C6)CC5)cc4)n3)C2)CC12CC2", "note": "(centres unmarked) [Compound 010, 3-((4-(1-(1-(2-(2,6-dioxopiperidin-3-yl)-1,3-dioxoisoindol-5-yl)azetidin-3-yl)-4-methylpiperidin-4-yl)phenyl)amino)-5-(3-(4-methyl-5-oxo-4,6-diazaspirocyclo[2.4]heptan-6-yl)piperidin-1-yl)pyrazin-2-carboxamide]", "values": [
      {"measurement": "DC50", "value": "> 1", "unit": "nM"}
    ]},
    {"smiles": "CN1C(=O)N(C2CCCN(c3cnc(C(N)=O)c(Nc4ccc(C5(C)CCN(C6CN(c7ccc8c(c7)C(=O)N(C7CCC(=O)NC7=O)C8=O)C6)CC5)cc4)n3)C2)CC12CCC2", "note": "(centres unmarked) [Compound 011, 3-((4-(1-(1-(2-(2,6-dioxopiperidin-3-yl)-1,3-dioxoisoindol-5-yl)azetidin-3-yl)-4-methylpiperidin-4-yl)phenyl)amino)-5-(3-(5-methyl-6-oxo-5,7-diazaspirocyclo[3.4]octan-7-yl)piperidin-1-yl)pyrazin-2-carboxamide]", "values": [
      {"measurement": "DC50", "value": "< 1", "unit": "nM"}
    ]},
    {"smiles": "CC1(c2ccc(Nc3nc(N4CCCC(N5CCN(C6COC6)C5=O)C4)cnc3C(N)=O)cc2)CCN(C2CCN(c3ccc4c(c3)C(=O)N(C3CCC(=O)NC3=O)C4=O)CC2)CC1", "note": "(centres unmarked) [Compound 012, 3-((4-(1′-(2-(2,6-dioxopiperidin-3-yl)-1,3-dioxoisoindol-5-yl)-4-methyl-[1,4′-bipiperidin]-4-yl)phenyl)amino)-5-(3-(3-(oxetan-3-yl)-2-oxoimidazolin-1-yl)piperidin-1-yl)pyrazin-2-carboxamide]", "values": [
      {"measurement": "DC50", "value": "< 1", "unit": "nM"}
    ]},
    {"smiles": "CC1(c2ccc(Nc3nc(N4CCCC(N5CCN(C6COC6)C5=O)C4)cnc3C(N)=O)cc2)CCN(C2CCN(c3ccc4c(c3)CN(C3CCC(=O)NC3=O)C4=O)CC2)CC1", "note": "(centres unmarked) [Compound 013, 3-((4-(1′-(2-(2,6-dioxopiperidin-3-yl)-1-oxoisoindol-5-yl)-4-methyl-[1,4′-bipiperidin]-4-yl)phenyl)amino)-5-(3-(3-(oxetan-3-yl)-2-oxoimidazolin-1-yl)piperidin-1-yl)pyrazin-2-carboxamide]", "values": [
      {"measurement": "DC50", "value": "< 1", "unit": "nM"}
    ]},
    {"smiles": "CC1(c2ccc(Nc3nc(N4CCCC(N5CCN(C6COC6)C5=O)C4)cnc3C(N)=O)cc2)CCN(C2CN(c3ccc4c(c3)CN(C3CCC(=O)NC3=O)C4=O)C2)CC1", "note": "(centres unmarked) [Compound 014, 3-((4-(1-(1-(2-(2,6-dioxopiperidin-3-yl)-1-oxoisoindol-5-yl)azetidin-3-yl)-4-methylpiperidin-4-yl)phenyl)amino)-5-(3-(3-(oxetan-3-yl)-2-oxoimidazolin-1-yl)piperidin-1-yl)pyrazin-2-carboxamide]", "values": [
      {"measurement": "DC50", "value": "< 1", "unit": "nM"}
    ]}
  ]
}
